From patent publication US20220096484A1, “METHODS AND COMPOSITIONS FOR TREATING CANCER BY TARGETING FATP2 AND MYELOID DERIVED SUPPRESSOR CELLS” (The Wistar Institute of Anatomy and Biology, priority 2019, published 2022)

What was measured:
[1] = tested on: PMN differentiated from HPCs; assay: PMN generated from HPC in the presence of GM-CSF and arachidonic acid; assay type: cell-based, mouse
Method: Single cells suspensions from spleen and tumors were prepared as described above. Then cells were stained and sorted on BD FACS Aria BD (Biosciences). PMN-MDSC)(CD45^+ CD11b^+Ly6G^+Ly6C^lo and M-MDSC (CD45^+ CD11b^+Ly6G^−Ly6C^hi) were plated in U-bottom 96-well plates (3 replicates) in RPMI with 10% FBS and co-cultured at different ratios with splenocytes from Pmel or OT-1 transgenic mice in the presence of cognate peptides: OT-1 (SIINFEKL; 0.1 ng/ml), Pmel (EGSRNQDWL; 0.1 μg/ml). After 48 h, cells were incubated with [^3H]-thymidine (PerkinElmer) for 16-18 h. Proliferation was measured by using TopCount NXT instrument (PerkinElmer).
RNA was extracted using Total RNA Kit according to manufacturer's instructions. DNase digestion was performed cDNA was generated with High-Capacity cDNA Reverse Transcription Kit (Applied Biosystems, Foster City, Calif., USA). qRT-PCR was performed using Power SYBR Green PCR Master Mix (Applied Biosystems) in 96- or 384 well plates. Plates were read with ABI 7900 (Applied Biosystems).
Mouse neutrophils were generated from enriched bone marrow hematopoietic progenitor cells (HPCs) with 20 ng/ml of GM-CSF. Briefly, HPCs were isolated from mouse BM by using Lineage depletion kit (Miltenyi), according to manufacturer's instructions. Cells were seeded at 25000 cell/ml in 24 well plates and GM-CSF (20 ng/ml), 20% v/v TES or arachidonic acid (10 μM) were added at day 0 and day 3. At day 5, Ly6G positive neutrophils were isolated by using anti-Ly6G biotin (Miltenyi) and streptavidin beads (Miltenyi), according to manufacturer's instructions.
HPCs were isolated from mouse BM by using Lineage depletion kit (Miltenyi), according to manufacturer's instructions. HPC were resuspended in serum-free medium (SFM) containing lentiviral vectors followed by centrifugation of the plate at 1000 rpm for 20 min at 25° C. Fresh media supplemented with GM-CSF (20 ng/ml) was then added and cells were seeded at 25000 cell/ml in 24 well plates. At day 3, GM-CSF and 20% v/v TES were added to the culture. At day 5, cells were collected, stained with PE conjugated anti mouse Ly6G, APC conjugated anti mouse Ly6C and BV421 conjugated anti-mouse CD11b, and GFP^− and GFP^+Ly6G^+ cells were sorted on BD FACS Melody (BD Biosciences). GFP^− and GFP^+Ly6G^+ cells were seeded at 2.000.000 cells/ml in presence of GM-CSF and TES and incubated for further 24 hours. Pellets and supernatants were collected for further analysis. PGE2 concentration in supernatants was measured by using PGE2 ELISA KIT (Invitrogen), according to manufacturer's instructions.

[2] = tested on: pSTAT5 / FATP2 in human PMNs; assay: Human PMN from healthy donors treated with GM-CSF (pSTAT5, FATP2); assay type: cell-based; conditions: human PMNs from blood of healthy donors
Text: FIG. 12A, Lipid accumulation (measured by BODIPY staining) in M-MDSCs isolated from the blood of patients with cancer or healthy individuals. Each circle indicates an individual. FIG. 12B, Amount of lipids (BODIPY staining) in M-MDSCs from blood and tumor tissue of patients with cancer. Each circle indicates an individual (n=5). FIG. 12C, RNA-seq analysis of genes involved in lipid accumulation in human LOX1^+ PMN-MDSCs and LOX1^− PMNs (n=4). FIG. 12D, PTGES expression in LOX1^+ and LOX1^− PMNs from blood of patients with cancer. Fold change compared with LOX1^− PMNs (n=3). FIG. 12E, SLC27A2 expression in M-MDSCs and monocytes isolated from blood of patients with cancer and healthy donors, respectively. Each circle indicates an individual (n=4-6). Data are mean±s.d. FIG. 12F, pSTAT5 by flow cytometry at different time points, in human PMNs isolated from the blood of healthy donors and treated with different amounts of GM-CSF. FIG. 12G, FATP2 in PMNs isolated from blood of healthy donors and treated with GM-CSF. Representative of three independent experiments. FIG. 12H, Content of total phosphatidylethanolamine (PE) and arachidonoyl-containing phosphatidylethanolamine (AA-PE) in PMN-MDSCs isolated from patients with lung cancer (n=5) or healthy donors (n=4). Each circle indicates an individual. Data are mean±s.d. *P<0.05, **P<0.01, ***P<0.001, ****P<0.0001, unpaired two-sided Student's t-test. […]

STAT5 / FATP2 in PMN = assay: Mouse bone marrow PMN treated with GM-CSF (pSTAT5 flow cytometry, FATP2 Western blot); assay type: cell-based
Method: Cells were lysed in RIPA buffer (Sigma-Aldrich) in presence of protease inhibitor cocktail (Sigma-Aldrich), sonicated and stored at −80° C. Whole cell lysates were prepared and subjected to 10% SDS-PAGE and transferred to PVDF membrane. The membranes were probed overnight at 4° C. with the antibodies specific for FATP2 (SLC27A2) (ThermoFisher), ACTIN, GAPDH, STAT5 (Cell Signaling Technology). Membranes were washed and incubated for 1 h at room temperature with secondary antibody conjugated with peroxidase.
Slc27a2 promoter has a binding site for the transcription factor STAT5 (http://jaspar.genereg.net). STAT5 can be activated by GM-CSF, which plays a critical role in myelopoiesis and expansion of MDSC^23. To explore whether GM-CSF might control slc27a2 expression through STAT5 activation we treated PMN isolated from BM of tumor free mice with GM-CSF for 2 hrs. […] To confirm the role of STAT5 in controlling the expression of slc27a2 in PMN, we crossed Stat5″ mice with S100A8-cre mice to target the deletion of Stat5 to PMN. In the absence of Stat5 in PMN, the tumor growth was slower than in control mice (FIG. 11I). This was associated with lower expression of slc27a2 in PMN (FIG. 11J).

[3] = PMN differentiated from HPC in the presence of AA

| Molecule | expansion of PMN-MDSC ([1]; HPC with GM-CSF and AA (10 μM)) | suppression of antigen specific T cell responses by the generated PMN ([1]; HPC with GM-CSF and AA (10 μM)) | expression of nox2 [1, 3] | production of PGE2 [1, 3] | FATP2 [2] | pSTAT5 [2] | FATP2 protein (STAT5 / FATP2 in PMN; PMN from BM of tumor free mice, GM-CSF) | activation of STAT5 (pSTAT5) (STAT5 / FATP2 in PMN; PMN from BM of tumor free mice, GM-CSF for 2 hrs) | expression of FATP2 in Stat5 deficient PMN (STAT5 / FATP2 in PMN; Stat5 deficient PMN, GM-CSF) |
| --- | --- | --- | --- | --- | --- | --- | --- | --- | --- |
| CCCCC/C=C\C/C=C\C/C=C\C/C=C\CCCC(=O)O [AA, arachidonic acid] | favored the expansion of PMN-MDSC | suppressed antigen specific T cell responses | increased expression of nox2 | higher production of PGE2 |  |  |  |  |  |
| GM-CSF: cytokine that activates STAT5; plays a critical role in myelopoiesis and expansion of MDSC |  |  |  |  | up-regulated | up-regulated | up-regulation of FATP2 | dose-dependent activation of STAT5 | failed to increase the expression of FATP2 |
